Data on five compounds can be found in ChEMBL document CHEMBL1132505, “Allosteric modulators of the AMPA receptor: novel 6-substituted dihydrophthalazines” (1999).

The target of experiment [1] is Glutamate receptor ionotropic, AMPA (Rattus norvegicus) (UniProt P19491+P19492+P19493+P19490). Kind of experiment: Inhibition of KA induced currents associated with activation of the AMPA subtype of glutamate receptors in cerebellar neurons at a concentration of 10 uM. The format is protein-complex assay.
For experiment [2], the system named is Mus musculus. The experiment in a line: In vivo anticonvulsant activity in mice using maximal electroshock (MES) assay; value ranges from 35-50 mg/kg. The format is functional. For orientation: The maximal electroshock test induces tonic seizures with an electrical stimulus.
The test system of another experiment is Rattus norvegicus. The experiment in a line: In vivo anticonvulsant activity in rats using maximal electroshock (MES) assay; value ranges from 35-50 mg/kg. In kind it is functional.
For experiment [3], the species on record is Mus musculus. Kind of experiment: Reduced sedation using rotarod test in mouse. The format is functional. A general note: In the rotarod test animals must keep their balance on a rotating rod.
The subject of experiment [4] is Mus musculus. The experiment in a line: In vivo anticonvulsant activity in mice using maximal electroshock (MES) assay. In kind it is functional.

Broadly, the inhibition is how much of the control response was suppressed. A higher inhibition goes with strong suppression. In the case of `CCCCNC(=O)N1N=C(c2ccc(N)cc2)c2cc(OC)ccc2C1C` (stereo unspecified), the inhibition in experiment [1] was 50%.

As usually defined, the ED50 is the midpoint of the dose-response relation. Higher therefore signals weaker potency. For `CCCCNC(=O)N1N=C(c2ccc(N)cc2)c2cc3c(cc2C1C)OCO3` (stereo unspecified), the ED50 in the experiment with Mus musculus [2] and in the experiment on Rattus norvegicus was 35 mg/kg in each case. This compound also registered an inhibition in experiment [1] of 62%.

As for `CCCNC(=O)N1N=C(c2ccc(N)cc2)c2cc(F)ccc2C1C` (stereo unspecified), the inhibition in experiment [1] was found to be 55%.

With `CCCNC(=O)N1N=C(c2ccc(N)cc2)c2cc3c(cc2C1C)OCO3` (stereo unspecified), the ED50 in the experiment on Mus musculus [2] and in the experiment on Rattus norvegicus was 35 mg/kg each time. This compound also displayed an inhibition in experiment [1] of 58%.

On to `CCCNC(=O)N1N=C(c2ccc(N)cc2)c2cc(OC)ccc2C1C` (stereo unspecified), for which the values for the 50% effective dose (ED50) in the experiment filed under Mus musculus [3] and in the experiment on Mus musculus [4] were 150 mg/kg and 52 mg/kg, respectively. Besides, in experiment [1], the inhibition was found to be 52%.
